Results on three compounds are retold here after article PMC10747034 (Tropical Medicine and Infectious Disease, 2023).

Read-outs that look alike come from different tables or passages of the source. Where only a bound is given, the exact number is not on record here.

For one data set, the system named is NHDF cells. Kind of data set: Cytotoxicity assay (MTS, 7 days). The class given is cell-based, Human. How it is done: (§1) For that, 96-well tissue plates containing NHDF cells were treated with different concentrations of compounds up to 10 µM for seven days. Control cells were incubated with 0.5% DMSO. At the end of the treatment, cell viability was then analyzed through the colorimetric method of MTS (Promega, Madison, WI, USA). […] Data were analyzed using GraphPad Prim 8.0 software. IC50 and CC50 calculations were performed by fitting the values of proliferation/viability in percentage to a non-linear curve followed by dose–response inhibition analysis through log(inhibitor) vs. normalized response.

Another data set concerns Madurella mycetomatis. Also noted: method as in PMID 35120131. Particulars: read-out: IC50 against Madurella mycetomatis; cited from earlier work.
Data set [1] concerns Toxoplasma gondii tachyzoites of RH strain. As to the kind of experiment: Plaque assay (7 days) in NHDF monolayers infected with T. gondii. The class given is cell-based. Particulars: 7 days of treatment, two independent experiments. Here is the method:
After NHDF reached confluency, each well was replaced with fresh medium containing one compound at a concentration of 1 µM, and then infected with 1000 newly egressed tachyzoites from RH strain [29]. Screening at 1 μM is recommended by MMV. As a control, infected cells were incubated with complete medium and 0.01% DMSO [29]. The plates were then kept in an incubator at 37 °C in a humid atmosphere with 5% CO2 for seven days. After this time, cultures were fixed with 70% ethanol and stained with crystal violet to observe the plates.
For that, 12-well plates containing a monolayer of NHDF were infected with 600 tachyzoites of the RH strain of T. gondii and treated with different concentrations for seven days. IC50s of compounds were calculated using GraphPad Prism 8.0 software.
Data were analyzed using GraphPad Prim 8.0 software. IC50 and CC50 calculations were performed by fitting the values of proliferation/viability in percentage to a non-linear curve followed by dose–response inhibition analysis through log(inhibitor) vs. normalized response.

Data set [2] shares this test system. As to the kind of experiment: Forty-eight-hour antiproliferative assay. The class given is cell-based. The note with it: 1 µM, 48 h; for inhibition at 1 µM: Toxoplasma gondii, read-out: Inhibition of parasite proliferation. How it is done:
NDHF cell monolayers were plated in a 24-well tissue plate containing coverslips, and after confluency was reached, cells were infected with a ratio of 5:1 parasite/host cells with freshly egressed RH strain tachyzoites for two hours. Then, cells were washed twice with phosphate-buffered saline, pH 7.4 (PBS), to remove non-invaded parasites and incubated with a complete medium for two hours more. After this time, infected cells were treated for 48 h with different concentrations of selected compounds, based on the IC50 obtained through plaque assay. At the end of the experiment, the cells were washed with PBS, stained with Bouin for 10 min, washed with 70% alcohol, and stained with solutions 2 and 3 of the Fast Panoptic kit for 60 and 10 s, respectively. Two hundred infected cells were quantified per slide using the 100× objective of a Leica DM500 optical microscope, stratifying the number of infected and non-infected cells and the amount of tachyzoite in each infected cell. The proliferation index is the ratio of the product of the total amount of tachyzoites and the percentage of infected cells by the total number of cells.

Another data set deals with T. gondii tachyzoites. As to the kind of experiment: Ultrastructural analysis through transmission electron microscopy. The class given is cell-based, Toxoplasma gondii. The note with it: 1 µM, 48 h. Here is the method:
T-25 cm^2 flasks for cell culture with confluent monolayers of NHDF were infected with freshly egressed tachyzoite in a ratio of 10:1 parasite per cell for 2 h of interaction. The flasks were washed and fresh RPMI was added for another two hours. After this, the compounds were added and infected cells were treated for 48 h. The sample fixation and processing for microscopy were performed as previously described.

The test system of a further data set is T. gondii RH strain. Particulars: read-out: IC50 against T. gondii RH strain; cited from earlier work.
The nature of data set [3]: Cytotoxicity assay (MTS, 7 days). The class given is cell-based, Human. Particulars: human, NHDF cells, MTS, read-out: Cytotoxicity against NHDF (7 Days) CC50. How it is done:
as §1

Another data set concerns T. gondii Me49 strain. The note with it: read-out: IC50 against T. gondii Me49 strain; cited from earlier work.
A further data set concerns Balamuthia Mandrillaris. Also on record: method as in PMID 32560115. Particulars: read-out: IC50 against Balamuthia Mandrillaris; cited from earlier work.

For the compound `Clc1cc(Cl)c2c(c1)CCc1ccccc1C2n1ccnc1` (centres unmarked) [Eberconazole], in the data set on NHDF cells (MTS, ND = 100% viability up to 10 µM, read-out: Cytotoxicity against NHDF (7 Days) CC50), the CC50 was above 10 µM. Further, the half-maximal inhibitory concentration (IC50) is 720 nM in the data set on Madurella mycetomatis and 724 ± 12.6 nM in data set [1]. For the same compound, the “Inhibition of parasite proliferation” value in data set [2] is on record as “more than 60%”. The “Ultrastructural alterations on tachyzoites (TEM)” value (from here on “Ultrastructural alterations”) in the data set on T. gondii tachyzoites is “induced mitochondrial swelling (white arrowhead) and extensive vacuolization”.
Consider `OCCC#Cc1nc(-c2ccc(F)cc2)c(-c2ccncc2)n1CCCc1ccccc1` [RWJ-67657], for which the IC50 with T. gondii RH strain is 5 µM; in data set [1] (Toxoplasma gondii, NHDF, 168 h), 412 ± 21.7 nM; in the data set on T. gondii Me49 strain it was 800 nM. The CC50 at 7 days in [3] (concentrations up to 10 µM, two independent experiments) stood at 12.6 µM. The “SI (Selectivity Index, CC50 NHDF cells/IC50 T. gondii)” value with NHDF cells worked out at 31. Besides, in [2], the “Inhibition of parasite proliferation” value worked out at 59.5%. In data set [2], the inhibition at 1 µM was above 60%. Also, in the data set with T. gondii tachyzoites, the “Ultrastructural alterations” value was “induced an extensive vacuolization (asterisks) in T. gondii and myelin-like bodies”.
`CN1CCN(Cc2ccc(-c3cnc4[nH]cc(-c5ccc6[nH]ccc6c5)c4c3)cc2)CC1` [URMC-099-C]: the CC50 at 7 days in [3] (ND = 100% viability up to 10 µM) was above 10 µM. For the same compound, the inhibition at 1 µM in [2] was above 60%. The “Ultrastructural alterations” value with T. gondii tachyzoites is “induced an extensive vacuolization (asterisks) in T. gondii and myelin-like bodies”. Also, the IC50 with Balamuthia Mandrillaris was 5.35 µM.
